Test results taken from PubChem BioAssay AID1963420 (Molecular Pharmacology Branch, DTP, NCI, 2024).

Tested on: 494315-158-R-J1-PDC complex spheroid growth, percent test/control
Assay: Anticancer human tumor 494315-158-R-J1-PDC patient-derived soft tissue sarcoma cell line growth inhibition [Asc]
Conditions: for IC50: curve of first compound; for viability, T/C: stronger effect = lower value
Summary of the method: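 Complex spheroids combining tumor cells with HUVEC endothelial cells and human MSCs, at 37 degrees C, 5% CO2; agents tested alone or combined, half-log dilutions from at or near clinical Cmax, or 10 microM if Cmax unknown.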

[1] = second compound 0.1 µM, first compound 0.00316 µM
[2] = second compound 0.1 µM, first compound 0.01 µM
[3] = second compound 0.1 µM, first compound 0.0316 µM
[4] = second compound 0.1 µM, first compound 0.1 µM
[5] = second compound 0.1 µM, first compound 0.316 µM
[6] = second compound 0.1 µM, first compound 1 µM
[7] = second compound 0.316 µM, first compound 0.00316 µM
[8] = second compound 0.316 µM, first compound 0.01 µM
[9] = second compound 0.316 µM, first compound 0.0316 µM
[10] = second compound 0.316 µM, first compound 0.1 µM
[11] = second compound 0.316 µM, first compound 0.316 µM
[12] = second compound 0.316 µM, first compound 1 µM
[13] = second compound 1 µM, first compound 0.00316 µM
[14] = second compound 1 µM, first compound 0.01 µM
[15] = second compound 1 µM, first compound 0.0316 µM
[16] = second compound 1 µM, first compound 0.1 µM
[17] = second compound 1 µM, first compound 0.316 µM
[18] = second compound 1 µM, first compound 1 µM
[19] = second compound 3.16 µM, first compound 0.00316 µM
[20] = second compound 3.16 µM, first compound 0.01 µM
[21] = second compound 3.16 µM, first compound 0.0316 µM
[22] = second compound 3.16 µM, first compound 0.1 µM
[23] = second compound 3.16 µM, first compound 0.316 µM
[24] = second compound 3.16 µM, first compound 1 µM
[25] = second compound 10 µM, first compound 0.00316 µM
[26] = second compound 10 µM, first compound 0.01 µM
[27] = second compound 10 µM, first compound 0.0316 µM
[28] = second compound 10 µM, first compound 0.1 µM
[29] = second compound 10 µM, first compound 0.316 µM
[30] = second compound 10 µM, first compound 1 µM
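Note: compound exposure lasted seven days after spheroids formed for three days.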

In the case of CCN1CCN(Cc2ccc(Nc3ncc(F)c(-c4cc(F)c5nc(C)n(C(C)C)c5c4)n3)nc2)CC1 + Cc1c(S(C)(=O)=O)c(-c2cc(F)cc(N3CCN(c4ccc(NS(=O)(=O)c5ccc(NC(CCN6CCC(C(=O)OCCCP(=O)(O)O)CC6)CSc6ccccc6)c(S(=O)(=O)C(F)(F)F)c5)cc4)CC3)c2)c(-c2ccc(Cl)cc2)n1C(C)C, the IC50 (second compound 0.1 µM) is reported as > 1000 nM, the IC50 (second compound 0.316 µM) is reported as 829 nM and the IC50 (second compound 1 µM) is reported as > 1000 nM. For the same compound, the IC50 (second compound 3.16 µM) was 272 nM, the IC50 (second compound 10 µM) was 725 nM and the viability, T/C [1] was 75.6%. The viability, T/C [2] was 83%, the viability, T/C [3] was 78.3% and the viability, T/C [4] was 77.1%. For the same compound, the viability, T/C [5] was 77.8%, the viability, T/C [6] was 53.6% and the viability, T/C [7] was 72.2%. The viability, T/C [8] was 79.8%, the viability, T/C [9] was 78% and the viability, T/C [10] was 67.1%. It also gave a viability, T/C [11] of 70.9%, a viability, T/C [12] of 46.1% and a viability, T/C [13] of 61.9%. For the same compound, the viability, T/C [14] was 65.7%, the viability, T/C [15] was 68% and the viability, T/C [16] was 65.7%. It also gave a viability, T/C [17] of 61.6%, a viability, T/C [18] of 41.1% and a viability, T/C [19] of 56.1%. For the same compound, the viability, T/C [20] was 52%, the viability, T/C [21] was 54.3% and the viability, T/C [22] was 61.4%. It also gave a viability, T/C [23] of 46.2%, a viability, T/C [24] of 31.3% and a viability, T/C [25] of 79%. The viability, T/C [26] was 81%, the viability, T/C [27] was 73.2% and the viability, T/C [28] was 76.7%. For the same compound, the viability, T/C [29] was 73.3% and the viability, T/C [30] was 41%.
In the case of Cn1ncnc1[C@H]1c2n[nH]c(=O)c3cc(F)cc(c23)N[C@@H]1c1ccc(F)cc1 + Cc1c(S(C)(=O)=O)c(-c2cc(F)cc(N3CCN(c4ccc(NS(=O)(=O)c5ccc(NC(CCN6CCC(C(=O)OCCCP(=O)(O)O)CC6)CSc6ccccc6)c(S(=O)(=O)C(F)(F)F)c5)cc4)CC3)c2)c(-c2ccc(Cl)cc2)n1C(C)C, the IC50 (second compound 0.1 µM) is reported as 26.8 nM, the IC50 (second compound 0.316 µM) is reported as 18.1 nM and the IC50 (second compound 1 µM) is reported as 4.34 nM. It also gave an IC50 (second compound 3.16 µM) of 1.3 nM, an IC50 (second compound 10 µM) of 4.61 nM and a viability, T/C (second compound 0.1 µM, first compound 0.000316 µM) of 83.2%. The viability, T/C (second compound 0.1 µM, first compound 0.001 µM) was 76%, the viability, T/C [1] was 62.2% and the viability, T/C [2] was 56.5%. For the same compound, the viability, T/C [3] was 48.7%, the viability, T/C [4] was 46.1% and the viability, T/C (second compound 0.316 µM, first compound 0.000316 µM) was 74.6%. It also gave a viability, T/C (second compound 0.316 µM, first compound 0.001 µM) of 63.1%, a viability, T/C [7] of 63.9% and a viability, T/C [8] of 44.6%. It also gave a viability, T/C [9] of 50.9%, a viability, T/C [10] of 48.9% and a viability, T/C (second compound 1 µM, first compound 0.000316 µM) of 56.4%. It also gave a viability, T/C (second compound 1 µM, first compound 0.001 µM) of 59%, a viability, T/C [13] of 52% and a viability, T/C [14] of 43%. It also gave a viability, T/C [15] of 38.9%, a viability, T/C [16] of 35% and a viability, T/C (second compound 3.16 µM, first compound 0.000316 µM) of 56.1%. It also gave a viability, T/C (second compound 3.16 µM, first compound 0.001 µM) of 53.5%, a viability, T/C [19] of 40.3% and a viability, T/C [20] of 31.6%. The viability, T/C [21] was 32.9%, the viability, T/C [22] was 25.4% and the viability, T/C (second compound 10 µM, first compound 0.000316 µM) was 66.1%. The viability, T/C (second compound 10 µM, first compound 0.001 µM) was 71.2%, the viability, T/C [25] was 53.3% and the viability, T/C [26] was 45.2%. For the same compound, the viability, T/C [27] was 38.4% and the viability, T/C [28] was 45.7%.
For O=C(c1cc(Cc2n[nH]c(=O)c3ccccc23)ccc1F)N1CCN(C(=O)C2CC2)CC1 + Cc1c(S(C)(=O)=O)c(-c2cc(F)cc(N3CCN(c4ccc(NS(=O)(=O)c5ccc(NC(CCN6CCC(C(=O)OCCCP(=O)(O)O)CC6)CSc6ccccc6)c(S(=O)(=O)C(F)(F)F)c5)cc4)CC3)c2)c(-c2ccc(Cl)cc2)n1C(C)C, the IC50 (second compound 0.1 µM) was 3040 nM, the IC50 (second compound 0.316 µM) was 1620 nM and the IC50 (second compound 1 µM) was 1640 nM. It also gave an IC50 (second compound 3.16 µM) of 1080 nM, an IC50 (second compound 10 µM) of 2260 nM and a viability, T/C [3] of 86%. For the same compound, the viability, T/C [4] was 76.2%, the viability, T/C [5] was 69.2% and the viability, T/C [6] was 63.5%. It also gave a viability, T/C (second compound 0.1 µM, first compound 3.16 µM) of 49.5%, a viability, T/C (second compound 0.1 µM, first compound 10 µM) of 36.3% and a viability, T/C [9] of 71.7%. The viability, T/C [10] was 66.4%, the viability, T/C [11] was 59.7% and the viability, T/C [12] was 57.6%. The viability, T/C (second compound 0.316 µM, first compound 3.16 µM) was 42.5%, the viability, T/C (second compound 0.316 µM, first compound 10 µM) was 33% and the viability, T/C [15] was 62.7%. The viability, T/C [16] was 70.9%, the viability, T/C [17] was 62% and the viability, T/C [18] was 57.8%. For the same compound, the viability, T/C (second compound 1 µM, first compound 3.16 µM) was 40.1%, the viability, T/C (second compound 1 µM, first compound 10 µM) was 23.4% and the viability, T/C [21] was 48.1%. It also gave a viability, T/C [22] of 51.8%, a viability, T/C [23] of 53.5% and a viability, T/C [24] of 51%. The viability, T/C (second compound 3.16 µM, first compound 3.16 µM) was 37%, the viability, T/C (second compound 3.16 µM, first compound 10 µM) was 22.2% and the viability, T/C [27] was 69.5%. For the same compound, the viability, T/C [28] was 77.1%, the viability, T/C [29] was 73.4% and the viability, T/C [30] was 58.5%. For the same compound, the viability, T/C (second compound 10 µM, first compound 3.16 µM) was 46.8% and the viability, T/C (second compound 10 µM, first compound 10 µM) was 29.3%.
O=C(c1ccc(F)c(F)c1Nc1ccc(I)cc1F)N1CC(O)([C@@H]2CCCCN2)C1 + Cc1c(S(C)(=O)=O)c(-c2cc(F)cc(N3CCN(c4ccc(NS(=O)(=O)c5ccc(NC(CCN6CCC(C(=O)OCCCP(=O)(O)O)CC6)CSc6ccccc6)c(S(=O)(=O)C(F)(F)F)c5)cc4)CC3)c2)c(-c2ccc(Cl)cc2)n1C(C)C showed an IC50 (second compound 0.1 µM) of 543 nM, an IC50 (second compound 0.316 µM) of 375 nM and an IC50 (second compound 1 µM) of 258 nM. For the same compound, the IC50 (second compound 3.16 µM) was 142 nM, the IC50 (second compound 10 µM) was 245 nM and the viability, T/C [1] was 78.8%. The viability, T/C [2] was 78.8%, the viability, T/C [3] was 87.4% and the viability, T/C [4] was 85.3%. It also gave a viability, T/C [5] of 72.1%, a viability, T/C [6] of 24.9% and a viability, T/C [7] of 71.2%. It also gave a viability, T/C [8] of 78.9%, a viability, T/C [9] of 70.6% and a viability, T/C [10] of 72%. The viability, T/C [11] was 55.8%, the viability, T/C [12] was 15.5% and the viability, T/C [13] was 60.4%. It also gave a viability, T/C [14] of 61.2%, a viability, T/C [15] of 71.6% and a viability, T/C [16] of 72.5%. The viability, T/C [17] was 46.5%, the viability, T/C [18] was 12.2% and the viability, T/C [19] was 60.5%. For the same compound, the viability, T/C [20] was 53.6%, the viability, T/C [21] was 59.5% and the viability, T/C [22] was 53.6%. For the same compound, the viability, T/C [23] was 40.7%, the viability, T/C [24] was 18.3% and the viability, T/C [25] was 68.2%. It also gave a viability, T/C [26] of 75.2%, a viability, T/C [27] of 76.4% and a viability, T/C [28] of 79.9%. The viability, T/C [29] was 43% and the viability, T/C [30] was 13.7%.
